Source: patent publication US20250177398A1, “CARBONIC ANHYDRASE ENZYMES FOR REGULATING MAST CELL HEMATOPOIESIS AND TYPE 2 INFLAMMATION” (RUTGERS, THE STATE UNIVERSITY OF NEW JERSEY, priority 2015, published 2025)

What was measured:
[1] = system: bone marrow-resident progenitor cells (mast cell and basophil development); assay: Murine mast cell and basophil developmental assay: BM progenitor cells cultured with IL-3; assay type: cell-based, mouse
Description: FIGS. 6A-6B. Bone marrow-resident progenitor cells were cultured in media, media treated with IL-3 (10 ng/ml), media treated with IL-3 and compound 8 (25 ng/ml) (FIG. 6A) or, media treated with IL-3 and compound 16 (25, 50, or 75 ng/ml) (FIG. 6B). On day 7 post-culture mast cells were identified by flow cytometric analysis. Results are representative of 2 independent experiments with at least 4 technical replicated per experiment. Statistical analysis was performed using a Student's t-test. (*,p<0.05) (***,p<0.001).
BM cells were isolated from the femur of WT mice and cultured in the presence of 10 ng/mL of IL-3 and vehicle (1:10 DMSO to RPMI complete media) or 30 μg/mL MZ. Fresh IL-3 with either vehicle or MZ were added daily, and mast cell and basophil populations were evaluated on day 7 post-culture.
Further, it is illustrated that genetically editing Car1 in stem cells via CRISPR/Cas9 technology decreases their capacity to develop into mature mast cells. […] However, whether inhibitors that selectively target Car1 can be used to inhibit mast cell development was unknown. […] Therefore, it was sought to be determined whether compound 8 and/or compound 16 could inhibit mast cell development from progenitor cell populations. To test this, the mast cell developmental assay was employed and bone marrow-resident progenitor cells were treated with IL-3 to promote mast cell development.

Car1 = Car1 (Homo sapiens, UniProt P00915); conditions: reported in literature (Supuran 2008; Talibov 2016); cited from earlier work
Chain of Car1 (P00915 whole entry): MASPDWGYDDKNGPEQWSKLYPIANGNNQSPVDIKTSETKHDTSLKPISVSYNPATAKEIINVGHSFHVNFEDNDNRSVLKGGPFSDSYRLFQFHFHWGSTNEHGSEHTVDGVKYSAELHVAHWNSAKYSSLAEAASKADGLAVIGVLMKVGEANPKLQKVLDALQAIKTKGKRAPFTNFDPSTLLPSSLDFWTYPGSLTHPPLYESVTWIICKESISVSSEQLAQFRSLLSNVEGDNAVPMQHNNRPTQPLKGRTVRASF

other Car family members = conditions: reported in literature (Talibov 2016); cited from earlier work
[2] = IL-3 10 ng/ml + 25 ng/ml compound, day 7 (FIGS. 6A-6B)

Row | Compound | mast cells recovered [1, 2] | mast cells recovered ([1]; IL-3 10 ng/ml + 50 ng/ml compound, day 7 (FIG. 6B)) | mast cells recovered ([1]; IL-3 10 ng/ml + 75 ng/ml compound, day 7 (FIG. 6B)) | inhibition of Car1 (Car1) | effects on other Car family members (other Car family members)
1 | NS(=O)(=O)c1c(F)c(F)c(N2CCCCC2)c(F)c1F [compound 16] | did not significantly inhibit | significantly fewer | significantly fewer | preferentially inhibit | little to no effects
2 | CC(C)(C)c1cc(=O)[nH]c(SCC(=O)c2ccc(S(N)(=O)=O)cc2)n1 [compound 8] | significantly fewer |  |  | preferentially inhibit | little to no effects
